Results taken from article PMC10298474 (2023).

System: Cy5-labeled 16 bp WC-helix (RNA, duplex) AGAGGGAAUUCCCUCU
Test: microscale thermophoresis
Settings: 100 mM K+, 2 mM Mg2+; 10 mM HEPES pH 7.5, 0.5 mM EDTA, 0.1% Tween 20, 25 °C; 50 nM RNA; single-site fit

C[C@@H]1O[C@@H](OC[C@H]2O[C@@H](Oc3c(-c4ccc(O)c(O)c4)oc4cc(O)cc(O)c4c3=O)[C@H](O)[C@@H](O)[C@@H]2O)[C@H](O)[C@H](O)[C@H]1O
KD: < 0.1 nM
